Reference: US7759358B2, “Oral bioavailable prodrugs” (priority 2003, dated 2010)
“Also recorded” adds a separate entry of the source.

Tests used:
[1] = In vitro diffusion studies with human skin (flow-through diffusion cells); assay type: in vitro ADME; details: for in vitro NTX (equivalent) flux across human skin, NTX-NTX compared with NTX: FIG. 2, mean of nine cells NTX and twelve cells NTX-NTX, three donors, paired Student's t-test p<0.05
Description: In vitro diffusion studies were conducted using human skin harvested during abdominal reduction surgery. Skin sections were obtained by using a Padgett dermatome set to 250 microns, and then were frozen at −20° C. until the time of the experiment. A PermeGear flow-through (In-Line, Riegelsville, Pa.) diffusion cell system was used for the diffusion studies. Data was collected utilizing three different specimens of frozen human tissue from three different donors. The human tissues had been frozen from two to five months. Three diffusion cells were used for NTX and four cells were used for NTX-NTX. A receiver buffer of HEPES-buffered Hank's balanced salts solution with gentamicin at pH of 7.3-7.4 was collected at a flow rate of 1.1 mL/h. A saturated NTX or NTX-NTX solution in light mineral oil was applied to the skin cells. Each cell received 0.25 mL of the respective drug solution. Samples were collected in six hour increments for 48 hours. After a six hour sample was obtained, they were stored at 4° C. until solid phase extraction processing. Skin cells were kept at 32° C. with a circulating water bath set to 39° C.
The diffusion data were plotted as the cumulative quantity of NTX equivalents collected in the receiver cell as a function of time. The flux value for a given experiment was computed from Fick's First Law of diffusion:
where Js is the steady-state flux, M is the cumulative amount of intact drug permeating the skin, A is the area of the cell (0.95 cm^2), Kp is the effective permeability coefficient in cm/h, and ΔC is the difference in concentration of NTX or NTX-NTX in the donor and receiver. Buildup in the receiver cell was kept to a minimum throughout the studies.
[…] in the skin and appeared as NTX in the receiver collection. The total amounts of NTX that absorbed through the skin and into the receiver from NTX and NTX-NTX were used in the data analysis. […] Data represent the mean±standard deviation of the nine skin cells with NTX and the twelve skin cells with NTX-NTX. Three individual human donor skin tissues were used. Due to the high variability of human skin, NTX was used with each experiment as a control. The results are reported in NTX nmol equivalents because the NTX-NTX duplex contains two molecules of NTX. Approximately 4% of the NTX flux was from the intact NTX-NTX prodrug, and 96% was NTX originating from the hydrolysis of NTX-NTX.
The data represents the mean±standard deviation of the nine cells with NTX and the twelve cells of NTX-NTX. Three individual human donor skin tissues were used.

[2] = Drug concentration in the skin after the 48 hour diffusion study
[3] = oral therapy; cited from earlier work
[4] = saturated solution in light mineral oil, human skin, 32° C., 48 hours, receiver collection

SMILES	in vitro NTX (equivalent) flux across human skin, NTX-NTX compared with NTX [1]	in vitro NTX (equivalent) flux across human skin, NTX-NTX compared with NTX ([1]; listed as duplex prodrug of NTX)	share of the NTX flux that was NTX originating from the hydrolysis of NTX-NTX [1, 4]	share of the NTX flux that was intact NTX-NTX prodrug [1, 4]	total NTX equivalent skin concentration, NTX-NTX-treated skin versus NTX-treated skin ([2]; after 48 hour diffusion study, FIG. 3)	share of the drug extracted from the NTX-NTX-treated skin that was NTX (bioconversion) ([2]; end of the 48 hour study, human skin)	hepatotoxicity [3]
O=C(Oc1ccc2c3c1OC1C(=O)CC[C@@]4(O)[C@@H](C2)N(CC2CC2)CC[C@]314)Oc1ccc2c3c1OC1C(=O)CC[C@@]4(O)[C@@H](C2)N(CC2CC2)CC[C@]314 (stereo partly shown) [NTX-NTX, 3,3′-Di-(N-cyclopropylmethyl-4,5-epoxy-14-hydroxy-morphinan-6-one-3-yl) Carbonate]	significant difference between the means; also recorded: significant increase in NTX equivalent flux	unexpected increase of NTX maximum flux rate	96%	Approximately 4%	No significant difference	66%	
O=C1CC[C@@]2(O)[C@H]3Cc4ccc(O)c5c4[C@@]2(CCN3CC2CC2)[C@H]1O5 [NTX, Naltrexone]							dose-related hepatocellular injury
